In PMC4823954, “From fighting depression to conquering tumors: a novel tricyclic thiazepine compound as a tubulin polymerization inhibitor” (Cell Death & Disease, 2016):

Tests used:
Assay in all cases: KINOMEscan
Assay type in all cases: binding
Settings in all cases: read-out: % Ctrl
[1] = biological target: T1, PIK3CA(I800L) (Homo sapiens, UniProt P42336, I800L)
T1 construct: purchased DiscoveRx KINOMEscan

[2] = biological target: T2, DMPK2 (Homo sapiens, UniProt Q6DT37)
T2 construct: purchased DiscoveRx KINOMEscan
Procedure, shortened: (§1)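 Competition binding panel of 442 non-mutant kinases: test compound at 5 and 10 μM competed with an active-site-directed ligand for 1 h with shaking. Bound kinase was eluted with 0.5 μM ligand and quantified by qPCR; %Ctrl = (compound − positive control)/(DMSO − positive control) × 100, lower meaning tighter binding.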

[3] = biological target: T3, MEK1 (Homo sapiens, UniProt Q02750)
T3 construct: purchased DiscoveRx KINOMEscan
Procedure, shortened: as §1

[4] = biological target: T4, TIE1 (Homo sapiens, UniProt P35590)
T4 construct: purchased DiscoveRx KINOMEscan
Procedure, shortened: as §1

[5] = biological target: T5, PRKCD (Homo sapiens, UniProt Q05655)
T5 construct: purchased DiscoveRx KINOMEscan
T5 sequence (Q05655 whole entry): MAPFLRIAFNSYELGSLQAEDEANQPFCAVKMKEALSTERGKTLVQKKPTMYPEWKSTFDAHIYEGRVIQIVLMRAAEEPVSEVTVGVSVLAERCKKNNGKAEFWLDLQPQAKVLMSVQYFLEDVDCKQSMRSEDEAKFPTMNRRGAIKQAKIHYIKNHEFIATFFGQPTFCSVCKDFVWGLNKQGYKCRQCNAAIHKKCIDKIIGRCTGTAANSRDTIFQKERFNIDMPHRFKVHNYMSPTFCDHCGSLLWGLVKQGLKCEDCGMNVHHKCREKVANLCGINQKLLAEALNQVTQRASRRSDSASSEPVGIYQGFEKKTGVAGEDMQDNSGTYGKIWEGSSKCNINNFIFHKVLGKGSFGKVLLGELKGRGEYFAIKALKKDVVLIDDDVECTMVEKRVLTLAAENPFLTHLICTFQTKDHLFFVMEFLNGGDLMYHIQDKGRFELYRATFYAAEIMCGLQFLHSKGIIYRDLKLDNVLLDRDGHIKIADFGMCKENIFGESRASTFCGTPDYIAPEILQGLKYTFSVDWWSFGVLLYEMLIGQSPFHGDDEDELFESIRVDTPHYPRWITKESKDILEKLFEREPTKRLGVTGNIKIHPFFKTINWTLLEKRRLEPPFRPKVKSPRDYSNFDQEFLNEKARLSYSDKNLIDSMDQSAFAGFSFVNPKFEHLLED
Procedure, shortened: as §1

[6] = biological target: T6, ABL1(H396P)-nonphosphorylated (Homo sapiens, UniProt P00519, H396P)
T6 construct: purchased DiscoveRx KINOMEscan

[7] = biological target: T7, p38-alpha (Homo sapiens, UniProt Q16539)
T7 construct: purchased DiscoveRx KINOMEscan
Procedure, shortened: as §1

[8] = biological target: T8, PRKG2 (Homo sapiens, UniProt Q13237)
T8 construct: purchased DiscoveRx KINOMEscan
Procedure, shortened: as §1

[9] = biological target: T9, ACVR1 (Homo sapiens, UniProt Q04771)
T9 construct: purchased DiscoveRx KINOMEscan
Procedure, shortened: as §1

[10] = biological target: T10, ARK5 (Homo sapiens, UniProt O60285)
T10 construct: purchased DiscoveRx KINOMEscan
T10 sequence (O60285 whole entry): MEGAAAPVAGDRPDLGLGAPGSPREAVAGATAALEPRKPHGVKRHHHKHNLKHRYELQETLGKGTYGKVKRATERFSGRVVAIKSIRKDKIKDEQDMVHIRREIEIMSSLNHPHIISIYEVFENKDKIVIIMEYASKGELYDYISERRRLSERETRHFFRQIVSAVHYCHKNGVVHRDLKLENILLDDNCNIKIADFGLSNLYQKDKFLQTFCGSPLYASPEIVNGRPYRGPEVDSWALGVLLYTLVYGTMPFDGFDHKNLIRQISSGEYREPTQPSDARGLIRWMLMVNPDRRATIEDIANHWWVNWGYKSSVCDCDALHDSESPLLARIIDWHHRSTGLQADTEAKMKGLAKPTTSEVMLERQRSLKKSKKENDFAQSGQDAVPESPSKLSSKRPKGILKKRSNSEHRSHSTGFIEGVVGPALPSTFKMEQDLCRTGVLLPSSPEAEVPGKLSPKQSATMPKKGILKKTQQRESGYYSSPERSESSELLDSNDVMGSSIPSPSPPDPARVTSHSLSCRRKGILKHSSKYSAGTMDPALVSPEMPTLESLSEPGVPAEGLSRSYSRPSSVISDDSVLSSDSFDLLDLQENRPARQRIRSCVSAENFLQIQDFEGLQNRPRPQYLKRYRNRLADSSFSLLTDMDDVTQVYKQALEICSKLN
Procedure, shortened: as §1

[11] = biological target: T11, CDK4-cyclinD1 (Homo sapiens, UniProt P11802)
T11 construct: purchased DiscoveRx KINOMEscan
Procedure, shortened: as §1

[12] = biological target: T12, PIK3CA(H1047Y) (Homo sapiens, UniProt P42336, H1047Y)
T12 construct: purchased DiscoveRx KINOMEscan
T12 sequence (P42336 whole entry H1047Y): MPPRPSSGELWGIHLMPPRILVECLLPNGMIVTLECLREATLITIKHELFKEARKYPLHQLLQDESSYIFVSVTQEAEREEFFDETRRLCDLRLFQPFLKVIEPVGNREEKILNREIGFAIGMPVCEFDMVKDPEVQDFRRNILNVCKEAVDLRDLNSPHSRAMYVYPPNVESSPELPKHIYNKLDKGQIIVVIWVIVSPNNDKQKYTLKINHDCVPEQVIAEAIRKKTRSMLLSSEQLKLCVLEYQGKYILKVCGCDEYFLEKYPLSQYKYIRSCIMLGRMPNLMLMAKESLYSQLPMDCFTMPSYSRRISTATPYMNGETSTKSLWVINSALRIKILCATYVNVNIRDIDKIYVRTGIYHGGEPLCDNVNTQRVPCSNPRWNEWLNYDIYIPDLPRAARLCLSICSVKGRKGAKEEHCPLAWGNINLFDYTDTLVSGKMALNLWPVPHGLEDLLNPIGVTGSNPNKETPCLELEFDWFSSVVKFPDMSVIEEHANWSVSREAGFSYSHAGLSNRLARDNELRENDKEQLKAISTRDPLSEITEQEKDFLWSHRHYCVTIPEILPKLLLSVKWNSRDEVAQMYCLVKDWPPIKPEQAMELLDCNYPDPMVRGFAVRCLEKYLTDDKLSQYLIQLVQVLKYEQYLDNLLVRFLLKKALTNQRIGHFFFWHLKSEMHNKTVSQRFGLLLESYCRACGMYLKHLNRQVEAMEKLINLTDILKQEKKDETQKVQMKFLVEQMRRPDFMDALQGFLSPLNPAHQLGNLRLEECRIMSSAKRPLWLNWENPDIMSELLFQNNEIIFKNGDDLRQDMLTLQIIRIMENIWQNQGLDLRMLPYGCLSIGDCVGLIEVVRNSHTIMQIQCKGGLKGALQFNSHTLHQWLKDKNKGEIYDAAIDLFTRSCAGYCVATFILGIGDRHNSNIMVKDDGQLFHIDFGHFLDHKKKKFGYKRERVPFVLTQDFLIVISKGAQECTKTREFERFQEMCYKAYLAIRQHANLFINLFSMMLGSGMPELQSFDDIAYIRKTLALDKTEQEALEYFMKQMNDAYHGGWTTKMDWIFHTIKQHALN

[13] = biological target: T13, TLK2 (Homo sapiens, UniProt Q86UE8)
T13 construct: purchased DiscoveRx KINOMEscan
Procedure, shortened: as §1

[14] = biological target: T14, SGK3 (Homo sapiens, UniProt Q96BR1)
T14 construct: purchased DiscoveRx KINOMEscan
Procedure, shortened: as §1

[15] = biological target: T15, PFTK1 (Homo sapiens, UniProt O94921)
T15 construct: purchased DiscoveRx KINOMEscan
Procedure, shortened: as §1

[16] = biological target: T16, CAMK4 (Homo sapiens, UniProt Q16566)
T16 construct: purchased DiscoveRx KINOMEscan
Procedure, shortened: as §1

[17] = biological target: T17, RSK3(Kin.Dom.1-N-terminal) (Homo sapiens, UniProt Q15349)
T17 construct: RSK3(Kin.Dom.1-N-terminal); purchased DiscoveRx KINOMEscan
Procedure, shortened: as §1

[18] = biological target: T18, PDGFRA (Homo sapiens, UniProt P16234)
T18 construct: purchased DiscoveRx KINOMEscan
Procedure, shortened: as §1

[19] = biological target: T19, ROCK2 (Homo sapiens, UniProt O75116)
T19 construct: purchased DiscoveRx KINOMEscan
T19 sequence (O75116 whole entry): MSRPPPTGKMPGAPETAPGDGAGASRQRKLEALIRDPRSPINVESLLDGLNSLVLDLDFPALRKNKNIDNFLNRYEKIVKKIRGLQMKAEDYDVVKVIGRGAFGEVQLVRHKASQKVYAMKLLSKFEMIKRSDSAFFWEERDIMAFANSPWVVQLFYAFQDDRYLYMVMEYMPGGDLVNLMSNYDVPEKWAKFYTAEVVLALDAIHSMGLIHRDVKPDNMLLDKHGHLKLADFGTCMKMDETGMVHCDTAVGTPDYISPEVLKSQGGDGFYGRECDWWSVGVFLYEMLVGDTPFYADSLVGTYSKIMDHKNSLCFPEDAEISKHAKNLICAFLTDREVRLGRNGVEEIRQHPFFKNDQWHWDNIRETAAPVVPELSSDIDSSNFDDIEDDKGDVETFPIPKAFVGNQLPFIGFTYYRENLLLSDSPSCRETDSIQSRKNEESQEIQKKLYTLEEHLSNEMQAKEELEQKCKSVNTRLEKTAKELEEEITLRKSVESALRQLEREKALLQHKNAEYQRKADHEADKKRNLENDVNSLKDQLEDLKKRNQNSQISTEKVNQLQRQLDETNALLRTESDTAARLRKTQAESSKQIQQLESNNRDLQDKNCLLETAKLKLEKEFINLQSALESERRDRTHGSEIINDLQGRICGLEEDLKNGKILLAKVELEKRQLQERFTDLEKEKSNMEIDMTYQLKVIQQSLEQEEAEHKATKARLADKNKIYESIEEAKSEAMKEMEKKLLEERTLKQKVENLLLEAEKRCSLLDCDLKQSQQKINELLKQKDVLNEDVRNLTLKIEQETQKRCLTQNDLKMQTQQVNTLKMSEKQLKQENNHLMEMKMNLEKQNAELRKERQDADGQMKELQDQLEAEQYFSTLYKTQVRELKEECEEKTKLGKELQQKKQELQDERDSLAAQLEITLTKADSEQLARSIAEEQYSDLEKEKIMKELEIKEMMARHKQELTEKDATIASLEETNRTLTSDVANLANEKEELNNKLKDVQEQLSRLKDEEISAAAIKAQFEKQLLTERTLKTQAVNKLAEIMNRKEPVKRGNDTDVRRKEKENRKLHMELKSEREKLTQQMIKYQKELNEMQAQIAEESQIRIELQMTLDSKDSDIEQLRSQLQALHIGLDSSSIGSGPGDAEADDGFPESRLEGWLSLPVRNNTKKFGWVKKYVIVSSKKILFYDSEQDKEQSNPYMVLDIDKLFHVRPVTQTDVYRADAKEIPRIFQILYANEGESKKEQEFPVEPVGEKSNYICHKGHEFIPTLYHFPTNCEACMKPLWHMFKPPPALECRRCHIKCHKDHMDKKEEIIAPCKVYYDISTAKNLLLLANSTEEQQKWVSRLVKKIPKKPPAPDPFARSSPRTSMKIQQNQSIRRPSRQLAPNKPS
Procedure, shortened: as §1

[20] = biological target: T20, NEK4 (Homo sapiens, UniProt P51957)
T20 construct: purchased DiscoveRx KINOMEscan
Procedure, shortened: as §1

[21] = biological target: T21, CASK (Homo sapiens, UniProt O14936)
T21 construct: purchased DiscoveRx KINOMEscan
Procedure, shortened: as §1

[22] = biological target: T22, PRKD2 (Homo sapiens, UniProt Q9BZL6)
T22 construct: purchased DiscoveRx KINOMEscan
Procedure, shortened: as §1

[23] = biological target: T23, EPHA2 (Homo sapiens, UniProt P29317)
T23 construct: purchased DiscoveRx KINOMEscan
Procedure, shortened: as §1

[24] = biological target: T24, LIMK2 (Homo sapiens, UniProt P53671)
T24 construct: purchased DiscoveRx KINOMEscan
T24 sequence (P53671 whole entry): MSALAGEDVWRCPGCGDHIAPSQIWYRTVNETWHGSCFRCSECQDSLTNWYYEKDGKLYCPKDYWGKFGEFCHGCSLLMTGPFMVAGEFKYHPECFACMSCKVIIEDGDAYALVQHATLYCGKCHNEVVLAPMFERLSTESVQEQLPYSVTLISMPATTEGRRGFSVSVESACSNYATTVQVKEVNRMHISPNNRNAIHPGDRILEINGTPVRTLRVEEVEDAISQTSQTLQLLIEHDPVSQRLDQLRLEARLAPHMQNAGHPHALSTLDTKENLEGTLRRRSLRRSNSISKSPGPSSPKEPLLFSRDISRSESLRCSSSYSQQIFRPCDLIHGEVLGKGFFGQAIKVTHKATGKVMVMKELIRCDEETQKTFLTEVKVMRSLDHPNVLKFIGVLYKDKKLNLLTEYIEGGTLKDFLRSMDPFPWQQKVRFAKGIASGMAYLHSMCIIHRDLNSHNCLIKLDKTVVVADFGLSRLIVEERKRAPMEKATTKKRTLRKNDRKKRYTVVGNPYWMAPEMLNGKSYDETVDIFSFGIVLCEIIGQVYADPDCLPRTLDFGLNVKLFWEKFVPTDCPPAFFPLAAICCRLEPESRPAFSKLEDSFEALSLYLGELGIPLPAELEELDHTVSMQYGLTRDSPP
Procedure, shortened: as §1

[25] = biological target: T25, CDC2L1 (Homo sapiens, UniProt P21127)
T25 construct: purchased DiscoveRx KINOMEscan
Procedure, shortened: as §1

[26] = biological target: T26, BMX (Homo sapiens, UniProt P51813)
T26 construct: purchased DiscoveRx KINOMEscan
Procedure, shortened: as §1

[27] = biological target: T27, MTOR (Homo sapiens, UniProt P42345)
T27 construct: purchased DiscoveRx KINOMEscan
Procedure, shortened: as §1

[28] = biological target: T28, AKT1 (Homo sapiens, UniProt P31749)
T28 construct: purchased DiscoveRx KINOMEscan
Procedure, shortened: as §1

[29] = biological target: T29, EIF2AK1 (Homo sapiens, UniProt Q9BQI3)
T29 construct: purchased DiscoveRx KINOMEscan
Procedure, shortened: as §1

[30] = biological target: T30, DRAK2 (Homo sapiens, UniProt O94768)
T30 construct: purchased DiscoveRx KINOMEscan
T30 sequence (O94768 whole entry): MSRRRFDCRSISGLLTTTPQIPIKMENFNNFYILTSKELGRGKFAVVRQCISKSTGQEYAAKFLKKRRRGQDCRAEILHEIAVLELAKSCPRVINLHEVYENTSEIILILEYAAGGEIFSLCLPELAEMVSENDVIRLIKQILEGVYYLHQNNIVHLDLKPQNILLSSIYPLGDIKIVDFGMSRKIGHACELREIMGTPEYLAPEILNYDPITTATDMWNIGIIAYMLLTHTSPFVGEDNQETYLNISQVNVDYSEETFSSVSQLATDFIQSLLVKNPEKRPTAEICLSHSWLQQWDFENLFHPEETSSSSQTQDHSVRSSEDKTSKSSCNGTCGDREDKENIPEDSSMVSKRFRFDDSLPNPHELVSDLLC
Procedure, shortened: as §1

T1 sequence (P42336 whole entry I800L): as the sequence (P42336 whole entry H1047Y) above, with I800L, Y1047H counted along it

Q: With `Cc1ccc(C2=Nc3cccnc3S(=O)(=O)c3ccccc32)cc1` [TBPT, 6-(p-tolyl)benzo[f] pyrido[2,3-b][1,4] thiazepine 11,11-dioxide] as the compound, how does the remaining binding at 5 µM ([1]; 5 μM) read?
A: 98%

Q: What about the remaining binding at 10 µM ([1]; 10 μM) of the same compound?
A: 72%

Q: What about the remaining binding at 5 µM ([2]; 5 μM) of the same compound?
A: 100%

Q: And the remaining binding at 10 µM ([2]; 10 μM)?
A: 83%

Q: And the remaining binding at 5 µM ([3]; 5 μM)?
A: 100%

Q: And the remaining binding at 10 µM ([3]; 10 μM)?
A: 92%

Q: What about the remaining binding at 5 µM ([4]; 5 μM) of the same compound?
A: 100%

Q: What about the remaining binding at 10 µM ([4]; 10 μM) of the same compound?
A: 98%

Q: What about the remaining binding at 5 µM ([5]; 5 μM) of the same compound?
A: 72%

Q: What about the remaining binding at 10 µM ([5]; 10 μM) of the same compound?
A: 100%

Q: What about the remaining binding at 5 µM ([6]; 5 μM) of the same compound?
A: 62%

Q: What about the remaining binding at 10 µM ([6]; 10 μM) of the same compound?
A: 77%

Q: What about the remaining binding at 5 µM ([7]; 5 μM) of the same compound?
A: 63%

Q: What about the remaining binding at 10 µM ([7]; 10 μM) of the same compound?
A: 100%

Q: And the remaining binding at 5 µM ([8]; 5 μM)?
A: 88%

Q: What about the remaining binding at 10 µM ([8]; 10 μM) of the same compound?
A: 98%

Q: And the remaining binding at 5 µM ([9]; 5 μM)?
A: 100%

Q: And the remaining binding at 10 µM ([9]; 10 μM)?
A: 100%

Q: And the remaining binding at 5 µM ([10]; 5 μM)?
A: 100%

Q: And the remaining binding at 10 µM ([10]; 10 μM)?
A: 100%

Q: And the remaining binding at 5 µM ([11]; 5 μM)?
A: 100%

Q: What about the remaining binding at 10 µM ([11]; 10 μM) of the same compound?
A: 79%

Q: And the remaining binding at 5 µM ([12]; 5 μM)?
A: 95%

Q: And the remaining binding at 10 µM ([12]; 10 μM)?
A: 100%

Q: And the remaining binding at 5 µM ([13]; 5 μM)?
A: 100%

Q: And the remaining binding at 10 µM ([13]; 10 μM)?
A: 100%

Q: What about the remaining binding at 5 µM ([14]; 5 μM) of the same compound?
A: 100%

Q: And the remaining binding at 10 µM ([14]; 10 μM)?
A: 99%

Q: What about the remaining binding at 5 µM ([15]; 5 μM) of the same compound?
A: 100%

Q: And the remaining binding at 10 µM ([15]; 10 μM)?
A: 100%

Q: What about the remaining binding at 5 µM ([16]; 5 μM) of the same compound?
A: 100%

Q: What about the remaining binding at 10 µM ([16]; 10 μM) of the same compound?
A: 93%

Q: What about the remaining binding at 5 µM ([17]; 5 μM) of the same compound?
A: 100%

Q: What about the remaining binding at 10 µM ([17]; 10 μM) of the same compound?
A: 82%

Q: And the remaining binding at 5 µM ([18]; 5 μM)?
A: 100%

Q: What about the remaining binding at 10 µM ([18]; 10 μM) of the same compound?
A: 100%

Q: What about the remaining binding at 5 µM ([19]; 5 μM) of the same compound?
A: 100%

Q: And the remaining binding at 10 µM ([19]; 10 μM)?
A: 92%

Q: And the remaining binding at 5 µM ([20]; 5 μM)?
A: 65%

Q: What about the remaining binding at 10 µM ([20]; 10 μM) of the same compound?
A: 99%

Q: What about the remaining binding at 5 µM ([21]; 5 μM) of the same compound?
A: 100%

Q: And the remaining binding at 10 µM ([21]; 10 μM)?
A: 100%

Q: What about the remaining binding at 5 µM ([22]; 5 μM) of the same compound?
A: 100%

Q: And the remaining binding at 10 µM ([22]; 10 μM)?
A: 100%

Q: What about the remaining binding at 5 µM ([23]; 5 μM) of the same compound?
A: 87%

Q: And the remaining binding at 10 µM ([23]; 10 μM)?
A: 95%

Q: And the remaining binding at 5 µM ([24]; 5 μM)?
A: 91%

Q: What about the remaining binding at 10 µM ([24]; 10 μM) of the same compound?
A: 100%

Q: And the remaining binding at 5 µM ([25]; 5 μM)?
A: 99%

Q: What about the remaining binding at 10 µM ([25]; 10 μM) of the same compound?
A: 100%

Q: And the remaining binding at 5 µM ([26]; 5 μM)?
A: 92%

Q: And the remaining binding at 10 µM ([26]; 10 μM)?
A: 93%

Q: What about the remaining binding at 5 µM ([27]; 5 μM) of the same compound?
A: 100%

Q: And the remaining binding at 10 µM ([27]; 10 μM)?
A: 95%

Q: And the remaining binding at 5 µM ([28]; 5 μM)?
A: 84%

Q: What about the remaining binding at 10 µM ([28]; 10 μM) of the same compound?
A: 100%

Q: What about the remaining binding at 5 µM ([29]; 5 μM) of the same compound?
A: 100%

Q: What about the remaining binding at 10 µM ([29]; 10 μM) of the same compound?
A: 100%

Q: What about the remaining binding at 5 µM ([30]; 5 μM) of the same compound?
A: 100%

Q: And the remaining binding at 10 µM ([30]; 10 μM)?
A: 91%
